# Data as given in patent US20080004282A1, “Compositions and methods for modulating gated ion channels” (PainCeptor Pharma Corporation, priority 2006, published 2008).
# Where two headings read alike, the source gives them in different places.
# Experiments:
# ASIC1a = molecular target: T1, ASIC1a (Homo sapiens, UniProt P78348); test: Two-electrode voltage clamp of acid-induced currents in Xenopus laevis oocytes; format: cell-based; design: expressed in transfected cells; host or cells: Xenopus laevis oocytes, nuclear microinjection of an expression vector such as pCDNA3; details: for inhibition at 50 µM: Xenopus oocytes, read-out: % inh. at 50 μM (Xo)
# T1 sequence (P78348 1-528): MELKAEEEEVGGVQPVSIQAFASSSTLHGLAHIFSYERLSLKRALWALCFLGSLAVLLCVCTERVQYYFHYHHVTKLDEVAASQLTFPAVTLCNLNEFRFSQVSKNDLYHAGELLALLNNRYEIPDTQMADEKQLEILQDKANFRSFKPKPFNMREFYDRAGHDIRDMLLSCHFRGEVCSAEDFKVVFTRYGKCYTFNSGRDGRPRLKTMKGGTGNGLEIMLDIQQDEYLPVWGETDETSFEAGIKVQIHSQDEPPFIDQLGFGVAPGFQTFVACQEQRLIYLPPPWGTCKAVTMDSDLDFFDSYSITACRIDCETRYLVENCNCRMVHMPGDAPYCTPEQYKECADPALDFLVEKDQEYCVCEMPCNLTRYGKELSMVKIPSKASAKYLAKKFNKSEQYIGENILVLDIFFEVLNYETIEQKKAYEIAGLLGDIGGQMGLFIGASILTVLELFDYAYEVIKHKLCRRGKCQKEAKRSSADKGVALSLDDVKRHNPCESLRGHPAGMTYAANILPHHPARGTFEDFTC
# Protocol: Screening and Bioanalysis of ASIC Antagonists in Xenopus laevis oocytes
# This example describes the in vitro assessment of the activity of the compounds of the present invention.
# Two-electrode voltage clamp electrophysiological assays in Xenopus laevis oocytes expressing gated ion channels are performed as follows:
# Oocytes are surgically removed from adult Xenopus laevis and treated for 2 h at room temperature with 1 mg/ml type I collagenase (Sigma) in Barth's solution under mild agitation. Selected oocytes at stage IV-V are defolliculated manually before nuclear microinjection of 2.5-5 ng of a suitable expression vector, such as pCDNA3, comprising the nucleotide sequence encoding a gated ion channel subunit protein. In such an experiment, the oocytes express homomultimeric proton-gated ion channels on their surface. In an alternate experiment, one, two, three or more vectors comprising the coding sequences for distinct gated ion channel subunits are co-injected in the oocyte nuclei. In the latter case, oocytes express heteromultimeric proton-gated ion channels. For example, ASIC2a and/or ASIC3 subunits in pcDNA3 vector are co-injected at a 1:1 cDNA ratio. After 2-4 days of expression at 19° C. in Barth's solution containing […] gentamicin and 1.8 mM CaCl2, gated ion channels are activated by applying an acidic solution (pH<7) and currents are recorded in a two electrode voltage-clamp configuration, using an OC-725B amplifier (Warner Instruments). Currents are acquired and digitized at 500 Hz on an Apple Imac G3 computer with an A/D NB-MIO-16XL interface (National Instruments) and recorded traces are post-filtered at 100 Hz in Axograph (Axon Instruments) (Neher, E. and Sakmann, B. (1976) Nature 260:799-802). Once impaled with the microelectrodes, oocytes are continuously superfused at 10-12 ml/min with a modified Ringer's solution containing 97 mM NaCl, 2 mM KCl, 1.8 mM CaCl2, and 10 mM HEPES brought to pH 7.4 with NaOH (Control Ringer). Test Ringer solution is prepared by replacing HEPES with MES and adjusting the pH to the desired acidic value. Compounds of the present invention are prepared in both the Control and Test Ringer solutions and applied to oocytes at room temperature through a computer-controlled switching valve system. Osmolarity of all solutions is adjusted to 235 mOsm with choline chloride. Similarly, recordings can also be acquired in an automated multichannel oocytes system as the OpusExpress™ (Molecular Devices, Sunnyvale, USA).
# FIGS. 1A and 2A illustrate the inhibitory effects of Compounds 12 and 44 on acid-induced activation of recombinant homomeric hASIC1a channels. FIGS. 1A and 2A show the dose-dependent inhibition of the acid-induced hASIC1a currents recorded from Xenopus laevis oocytes using the two-electrode voltage clamp method (as described in this example) in the absence or presence of increasing concentration of the compounds.
# [1] = system: thermal hyperalgesia from carrageenan-induced acute paw inflammation; test: Carrageenan model, thermal hyperalgesia (Hargreaves' assay); format: in vivo; details: rat, 20 mg/kg s.c. 30 min prior to carrageenan, 2-3 hours post-carrageenan
# Protocol: Carrageenan Model for Pain
# Acute inflammatory hyperalgesia is induced in rats by unilateral injection of […] of a 3% solution of 1-carrageenan into the plantar surface of the left hind paw 2-4 h prior to testing. Thermal nociceptive thresholds are determined according to the method described elsewhere (Hargreaves et al., 1988). Briefly, through the glass surface, a radiant heat source (8 V, 50 W projector bulb) is focused onto the plantar surface of the hind paw. The rat's paw-withdrawal latency to this stimulus is recorded to the nearest 0.1 s. Each latency score is an average of three trials, which are separated by at least 5 min. In all rats, both the injured and uninjured hind paws are similarly tested, allowing direct comparisons between inflamed and non-inflamed paws.
# FIG. 7 illustrates the effect of Compound 44 (20 mg/kg s.c.) on the thermal hyperalgesia (observed in the Hargreaves' assay) resulting from an acute paw inflammation caused by the intraplantar injection of 150 μl of a 3% solution of λ-carrageenan. Compound 44 was given 30 min prior to carrageenan injection and thermal hyperalgesia was tested 2, 3, and 4 h post carrageenan injection.
Structure (SMILES),inhibition at 50 µM (ASIC1a) [%],"IC50 (ASIC1a; Xenopus laevis oocytes, three point dose-response, read-out: IC50, half maximal inhibition of the acid-evoked response in hASIC1a) [µM]",IC50 (ASIC1a) [µM],effect on thermal hyperalgesia [1]
"CCN1CCc2c(-c3ccccc3)cc(C#N)c(N)c2C1 [Compound 12, 8-Amino-2-ethyl-5-phenyl-1,2,3,4-tetrahydro-isoquinoline-7-carbonitrile]",> 50,5.9,–,–
CCN1CCc2c(-c3cc(Cl)ccc3OC)cc(C#N)c(N)c2C1 [Compound 44],> 50,–,8.5,completely reversed
